Data taken from US5686628A, “Proline derivatives” (Zeneca Ltd., priority 1995, dated 1997).
Like-named read-outs stand apart in the source and are kept apart here. Each block holds one compound with its values, some of them ahead of it. Where a SMILES comes first, the peptide text is derived from it. [ ]: non-standard residue; d: D form. The star is where a group is joined. ξ: configuration not given here. ξV = CC(C)C(N)C(=O)O; CF3 = FC(F)(F)*; Moc = COC(=O)*

Tests used:
[1] = molecular target: T1, human neutrophil elastase (HNE) (Homo sapiens, UniProt P08246); test: Acute Hemorrhagic Assay (HNE-induced lung hemorrhage in hamsters); format: in vivo, Male Syrian hamsters; conditions: hamster, 50 μg/animal HNE intratracheal, 4 h, read-out: ED50 (inhibition of HNE-induced hemorrhage)
T1 sequence (P08246 30-267): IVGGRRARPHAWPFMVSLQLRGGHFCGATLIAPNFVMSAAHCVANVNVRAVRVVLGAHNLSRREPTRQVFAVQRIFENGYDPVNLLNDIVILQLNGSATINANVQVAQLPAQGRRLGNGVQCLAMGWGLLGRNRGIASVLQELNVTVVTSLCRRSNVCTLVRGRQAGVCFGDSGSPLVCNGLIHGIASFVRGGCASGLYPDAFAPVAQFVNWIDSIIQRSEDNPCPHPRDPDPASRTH
Experimental: This assay relies on monitoring only the amount of hemorrhage in the lung following intratracheal administration of human neutrophil elastase (HNE). Hemorrhage is quantified by disrupting erythrocytes recovered in lung lavage fluid and comparing that to dilutions of whole hamster blood. […] Male Syrian hamsters (fasted for 16-18 hours prior to use) are lightly anaesthetised with Brevital sodium (30 mg/kg i.p.). […] Four hours after enzyme administration, the animals are killed with an overdose of pentobarbital sodium, the thorax opened and the lungs and heart removed and the lungs cleared of extraneous material. The excised lungs are lavaged with three changes of 2 ml PBS via a tracheal cannula. The recovered lavages are pooled, the volumes (about 5 mL) are recorded and the lavages stored at 4 ° C. until assayed. For calculation of the amount of blood in each sample, the thawed lavages and a sample of whole hamster blood are sonicated to disrupt erythrocytes and appropriately diluted into individual wells of a 96-well microtiter plate. The optical densities (OD) of the disrupted lavages and blood samples are determined at 540 nm. The (μL blood equivalents) / (mL lavage) are determined by comparing the OD of the test samples with the OD of the standard curve prepared from whole hamster blood. The total μL equivalents of blood recovered is determined by multiplying recovered lavage volume by the (μL blood equivalents) / (mL lavage) for each sample.

[2] = molecular target: T2, human leukocyte elastase (HLE) (Homo sapiens, UniProt P08246); test: Inhibition of human leukocyte elastase (HLE) on low molecular weight peptide substrate methoxy-succinyl-alanyl-alanyl-prolyl-valine-p-nitroanilide; format: biochemical; conditions: kinetic determination, read-out: Ki (dissociation constant of the complex formed from the interaction of the inhibitor with HLE)
T2 sequence (P08246 30-267): T1 sequence (P08246 30-267)
Experimental: The potency of the compound of the invention (or a particular form thereof) to act as an inhibitor of human leukocyte elastase (HLE) on the low molecular weight peptide substrate methoxy-succinyl-alanyl-alanyl-prolyl-valine-p-nitroanilide is determined as described in U.S. Pat. No. 4,910,190. The potency of the compound is evaluated by obtaining a kinetic determination of the dissociation constant, Ki, of the complex formed from the interaction of the inhibitor with HLE.

Hygroscopicity = format: physicochemical
[3] = Solubility in aqueous buffer; format: physicochemical; conditions: crystalline hydrated forms
Bioavailability = format: in vivo; conditions: crystalline hydrated forms

ED50 ([1]; oral dosing): 4.5 mg/kg | Ki [2]: 36 nM
SMILES: COC(=O)N[C@H](C(=O)N1CCC[C@H]1C(=O)NC(C(=O)C(F)(F)F)C(C)C)C(C)C (stereo partly drawn) [Example 1, (S)-1-[(S)-2-(methoxycarbonylamino)-3-methylbutyryl]-N-[2-methyl-1-(2,2,2-trifluoroacetyl)propyl]pyrrolidine-2-carboxamide] (Moc-Val-Pro-[ξV]-CF3)

hygroscopicity (Hygroscopicity; listed as Form A): non-hygroscopic | ED50 ([1]; iv, i.v. administration): 0.6 mg/kg | ED50 ([1]; oral dosing): 1.9 mg/kg | solubility in aqueous buffer [3]: good solubility in aqueous buffer | Ki [2]: 9 nM | bioavailability (Bioavailability): good bioavailability
SMILES: COC(=O)N[C@H](C(=O)N1CCC[C@H]1C(=O)N[C@H](C(=O)C(F)(F)F)C(C)C)C(C)C [Example 2, (S)-1-[(S)-2-(methoxycarbonylamino)-3-methylbutyryl]-N-[(S)-2-methyl-1-(2,2,2-trifluoroacetyl)propyl]-pyrrolidine-2-carboxamide] (HELM PEPTIDE1{[COC(=O)[*:2]].V.P.V.[FC(F)(F)[*:1]]}$$$$V2.0)

hygroscopicity (Hygroscopicity; listed as Form B): non-hygroscopic
SMILES: COC(=O)N[C@H](C(=O)N1CCC[C@H]1C(=O)N[C@H](C(=O)C(F)(F)F)C(C)C)C(C)C [Example 8] (HELM PEPTIDE1{[COC(=O)[*:2]].V.P.V.[FC(F)(F)[*:1]]}$$$$V2.0)

hygroscopicity (Hygroscopicity; listed as "ketone" form): hygroscopic
SMILES: COC(=O)N[C@H](C(=O)N1CCC[C@H]1C(=O)N[C@H](C(=O)C(F)(F)F)C(C)C)C(C)C [Example 10] (HELM PEPTIDE1{[COC(=O)[*:2]].V.P.V.[FC(F)(F)[*:1]]}$$$$V2.0)
